Key:
LITAF = test: Mice study #2: LITAF immunoblotting of gingival samples; format: in vivo, C57BL/6 mice; conditions: pattern as for Myd88 (disease higher than control and treatment)
Protocol: Western blot analysis. Cells were seeded in 60 mm plates with a density of 5×10^5 cells per plate and washed briefly with Dulbecco's phosphate-buffered saline (Gibco, Waltham, MA, USA). Whole cell lysates were prepared using RIPA lysis buffer containing protease inhibitor cocktail (Sigma-Aldrich). Total protein concentration was determined using the BCA reagent (Pierce, Waltham, MA, USA). 20 μg of total protein were resolved on sodium dodecyl sulfate-polyacrylamide gel electrophoresis and transferred to polyvinylidenedifluoride membrane and immunoblotted. The blots were incubated for 1 h in 1% bovine serum albumin (BSA) (Sigma-Aldrich) to block the non-specific bindings followed by over-night incubation in primary antibodies (MyD88 and pP65 from Cell Signaling Technology, and human LITAF ThermoFisher Sigma) at 4° C. on shaker. Next day, blots were washed for three times (10 min each) in Tris-buffered saline containing 1% Tween20 (TBST) followed by incubation with secondary antibody (Goat anti-rabbit IgG HRP) with 1:10,000 dilution for 1 h. […] The band intensities were quantified using software ImageJ (NIH, USA) and relative protein levels were normalized by β-actin (Cell Signaling). […] The band intensities were measured by the software ImageJ (NIH, USA), and relative protein levels were normalized by β-actin.

[1] = system: Collagen type I alpha 1 (Col1a1); test: Collagen (Col1a1) expression in Human Oral Fibroblasts, QPCR; format: cell-based; conditions: HOF treated with conditioned media from Oral Keratinocytes containing LPS, CSA, Phenytoin or Folic acid (10 μg/ml), 24 hours; p<0.05
Protocol: Cell Culture. Normal human oral keratinocytes (NOKSI) and fibroblast (HOF) cells were maintained in Dulbecco […] Eagle's medium (Sigma-Aldrich, St. Louis, MO, USA) supplemented with 10% fetal bovine serum (Atlas Bio-logicals, Fort Collins, CO, USA) and 100 units/mL penicillin and 100 μg/mL streptomycin (LifeTechnologies, Carlsbad, CA, USA). Cells were grown in incubator at 37° C. in a humidified chamber with 5% CO2.
Human Oral Fibroblasts (HOF) cells were seeded in 60 mm plates with a density of 2.5×10^4/cm^2 and treated with condition (CM) media collected from Oral Keratinocytes containing LPS (10 μg/ml), CSA (10 μg/ml), Phenytoin (10 μg/ml), or Folic acid (10 μg/ml) and incubated for 24 hours. The Collagen type I alpha 1 (Col1a1) gene expression was determined by QPCR. HOF cells were treated with rTGF-β, SB-431542 (SB), rTNF-α, or TNF-α inhibitor (TNF-α inh). Quantitative real-time PCR results showing the expression of Col1a1 in HOF cells after the treatment. (p<0.05).

Nc1nc2ncc(CNc3ccc(C(=O)N[C@@H](CCC(=O)O)C(=O)O)cc3)nc2c(=O)[nH]1 [folic acid]
LITAF expression, pattern across groups (LITAF): a similar pattern
Collagen type I alpha 1 (Col1a1) gene expression [1]: reduces the collagen expression

From patent US20260000496A1, “MATERIALS AND METHODS FOR DRUG-INDUCED GINGIVAL OVERGROWTH” (Optimed Technology, Inc., priority 2019, published 2026)
